Data: ChEMBL document CHEMBL4257562, “Pseudomonas aeruginosa Quorum Sensing Systems as Drug Discovery Targets: Current Position and Future Perspectives” (J Med Chem, 2018)

What was measured:
[1] = target: T1, 2-heptyl-4(1H)-quinolone synthase PqsD (Pseudomonas aeruginosa, UniProt A0A0C7ACN7); assay: Inhibition of Pseudomonas aeruginosa PqsD
T1 sequence (A0A0C7ACN7 whole entry): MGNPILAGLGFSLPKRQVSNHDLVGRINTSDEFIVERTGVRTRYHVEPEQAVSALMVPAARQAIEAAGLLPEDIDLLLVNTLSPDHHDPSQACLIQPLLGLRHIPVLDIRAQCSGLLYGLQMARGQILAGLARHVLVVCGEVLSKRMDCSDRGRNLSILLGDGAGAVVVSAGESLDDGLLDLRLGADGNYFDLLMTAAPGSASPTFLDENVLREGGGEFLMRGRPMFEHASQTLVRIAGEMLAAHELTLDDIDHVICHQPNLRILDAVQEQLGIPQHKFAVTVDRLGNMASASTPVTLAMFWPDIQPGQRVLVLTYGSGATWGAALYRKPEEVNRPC

Pseudomonas aeruginosa [2] = assay: Antibiofilm activity against Pseudomonas aeruginosa PA14 at 100 uM; type: functional
[3] = target: T2, Transcriptional activator protein LasR (Pseudomonas aeruginosa (strain ATCC 15692 / PAO1 / 1C / PRS 101 / LMG12228), UniProt P25084); assay: Antagonist activity at GFP-fused LasR in Pseudomonas aeruginosa PAO-JP2 co-expressing LVAgfp plasmid by fluorescence assay
T2 sequence (P25084 whole entry): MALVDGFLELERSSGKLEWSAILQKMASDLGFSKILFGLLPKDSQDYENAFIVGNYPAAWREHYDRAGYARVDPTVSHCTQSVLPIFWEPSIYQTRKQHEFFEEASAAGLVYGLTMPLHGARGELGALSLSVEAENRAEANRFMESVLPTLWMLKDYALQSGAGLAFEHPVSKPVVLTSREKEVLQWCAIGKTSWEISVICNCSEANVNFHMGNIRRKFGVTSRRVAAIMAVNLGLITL

[4] = target: T3, HTH-type quorum-sensing regulator RhlR (Pseudomonas aeruginosa (strain ATCC 15692 / PAO1 / 1C / PRS 101 / LMG12228)) (UniProt P54292); settings: 2.27 mM
T3 sequence (whole entry): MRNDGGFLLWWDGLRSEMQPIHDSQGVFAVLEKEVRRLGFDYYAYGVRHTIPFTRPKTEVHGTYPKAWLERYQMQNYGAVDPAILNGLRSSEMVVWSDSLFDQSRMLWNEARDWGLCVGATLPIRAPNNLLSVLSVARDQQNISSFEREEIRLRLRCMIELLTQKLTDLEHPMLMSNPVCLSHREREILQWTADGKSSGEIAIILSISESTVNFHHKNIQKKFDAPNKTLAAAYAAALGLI
Description: Antagonist activity at Pseudomonas aeruginosa PAO1 GFP-fused RhlR expressed in Escherichia coli DH5alpha co-expressing rhlA promoter assessed as inhibition of L-arabinose-induced C4-HSL production at 2.27 mM after 5 hrs relative to control

[5] = target: T2, Transcriptional activator protein LasR; assay: Antagonist activity at LasR in Pseudomonas aeruginosa PAO1 harboring GFP-fused quorum sensing lasB measured every 15 mins for 14 hrs by GFP reporter gene assay
[6] = target: T4, HTH-type quorum-sensing regulator RhlR (Pseudomonas aeruginosa (strain ATCC 15692 / PAO1 / 1C / PRS 101 / LMG12228), UniProt P54292); assay: Inhibition of Pseudomonas aeruginosa GFP-fused RhlR expressed in Escherichia coli BL21-Gold (DE3) co-expressing rhlA promoter by beta-galactosidase reporter gene assay
T4 sequence (P54292 whole entry): T3 sequence (whole entry)

Pseudomonas aeruginosa [7] = assay: In vivo inhibition of Pseudomonas aeruginosa PA14 PqsR in immunocompetent acute mouse thigh infection model assessed as decrease in PQS levels in plasma at 200 mg/kg, po administered at 2, 10, 18 and 26 hrs post infection measured at 12 hrs relative to control; type: functional
[8] = target: T2, Transcriptional activator protein LasR; assay: Antagonist activity at Pseudomonas aeruginosa LasR expressed in Escherichia coli DH5alpha assessed as inhibition of protein interaction with OdDHL after 1.5 hrs by beta-galactosidase reporter gene assay
[9] = target: T2, Transcriptional activator protein LasR; assay: Antagonist activity at Pseudomonas aeruginosa LasR expressed in Escherichia coli DH5alpha assessed as inhibition of […]-induced receptor activation after 4 hrs by Miller-type beta-galactosidase reporter gene assay
[10] = target: T2, Transcriptional activator protein LasR; assay: Antagonist activity at LasR in Pseudomonas aeruginosa reporter strain
[11] = target: T5, Transcriptional activator protein LasR (Pseudomonas aeruginosa (strain ATCC 15692 / PAO1 / 1C / PRS 101 / LMG12228)) (UniProt P25084); assay: Inhibition of OC12-HSL-dependent LasR activation in Pseudomonas aeruginosa MH602 harboring GFP-fused quorum sensing lasB at 250 uM measured every 30 mins up to 15 hrs by GFP reporter gene assay
T5 sequence (whole entry): T2 sequence (P25084 whole entry)

[12] = target: T5, Transcriptional activator protein LasR (Pseudomonas aeruginosa (strain ATCC 15692 / PAO1 / 1C / PRS 101 / LMG12228)); assay: Non-competitive inhibition of Pseudomonas aeruginosa LasR expressed in Escherichia coli; settings: concentration not given here
[13] = target: T3, HTH-type quorum-sensing regulator RhlR (Pseudomonas aeruginosa (strain ATCC 15692 / PAO1 / 1C / PRS 101 / LMG12228)); assay: Non-competitive inhibition of Pseudomonas aeruginosa RhlR expressed in Escherichia coli; settings: concentration not given here
[14] = Antagonist activity at Escherichia coli LasR assessed as inhibition of protein interaction with OdDHL by beta-galactosidase reporter gene assay
[15] = target: T6, Acyl-homoserine-lactone synthase (Pseudomonas aeruginosa (strain ATCC 15692 / PAO1 / 1C / PRS 101 / LMG12228)) (UniProt P33883); assay: Inhibition of Pseudomonas aeruginosa PAO1 LasI after 10 mins by beta-galactosidase reporter gene assay
T6 sequence (whole entry): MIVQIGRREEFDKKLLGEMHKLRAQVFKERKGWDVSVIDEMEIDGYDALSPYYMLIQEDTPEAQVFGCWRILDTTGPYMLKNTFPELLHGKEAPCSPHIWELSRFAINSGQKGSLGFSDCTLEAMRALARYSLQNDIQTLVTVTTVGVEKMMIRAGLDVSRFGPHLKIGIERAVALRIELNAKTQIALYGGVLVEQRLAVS

[16] = target: T5, Transcriptional activator protein LasR (Pseudomonas aeruginosa (strain ATCC 15692 / PAO1 / 1C / PRS 101 / LMG12228)); assay: Antagonist activity at Pseudomonas aeruginosa LasR expressed in Pseudomonas putida F117 assessed as inhibition of 3-oxo-C12-HSL-induced protein activation at 20 uM after 4 hrs by fluorescence assay relative to control
[17] = target: T2, Transcriptional activator protein LasR; assay: Inhibition of LasR in Pseudomonas aeruginosa harboring GFP-fused quorum sensing lasB measured every 15 mins up to 12 hrs by GFP reporter gene assay
Pseudomonas aeruginosa [18] = assay: Inhibition of Pseudomonas aeruginosa quorum sensing system assessed as decrease in C4-HSL production at 6 mM relative to control
Pseudomonas aeruginosa [19] = assay: Inhibition of Pseudomonas aeruginosa quorum sensing system assessed as decrease in 3OC12-HSL production at 6 mM relative to control
[20] = Inhibition of Pseudomonas aeruginosa PA14 PqsBC catalytic activity using 2-ABA/octanoyl-CoA as substrate after 5 mins
[21] = target: T2, Transcriptional activator protein LasR; assay: Antagonist activity at Pseudomonas aeruginosa MW1 LasR assessed as inhibition of protein interaction with OdDHL by beta-galactosidase reporter gene assay
[22] = target: T2, Transcriptional activator protein LasR; assay: Inhibition of LasR in Pseudomonas aeruginosa reporter strain harboring gfp-lasB
[23] = target: T1, 2-heptyl-4(1H)-quinolone synthase PqsD; assay: Antagonist activity at Pseudomonas aeruginosa PqsD
[24] = Inhibition of Pseudomonas aeruginosa PqsR
Escherichia coli = assay: Antagonist activity at Escherichia coli LasR at 6 uM by luciferase reporter gene assay
[25] = target: T1, 2-heptyl-4(1H)-quinolone synthase PqsD; assay: Inhibition of recombinant Pseudomonas aeruginosa PqsD expressed in Escherichia coli using anthraniloyl-CoA as substrate assessed as decrease in HHQ production
[26] = target: T1, 2-heptyl-4(1H)-quinolone synthase PqsD; assay: Binding affinity to recombinant Pseudomonas aeruginosa PqsD at 298 K by ITC assay
[27] = Antagonist activity at Escherichia coli His6/Sumo-tagged PqsR by beta-galactosidase reporter gene assay
[28] = Antagonist activity at Pseudomonas aeruginosa His6/Sumo-tagged PqsR by beta-galactosidase reporter gene assay
Pseudomonas aeruginosa [29] = assay: Inhibition of Pseudomonas aeruginosa PQS signaling at 138 uM relative to control
[30] = Inhibition of Pseudomonas aeruginosa PqsBC assessed as decrease in conversion of 2-ABA/octanoyl-CoA to HHQ measured every 60 secs
[31] = Antagonist activity at Pseudomonas aeruginosa PqsR
[32] = Antagonist activity at Escherichia coli DH5alpha PqsR by beta-galactosidase reporter gene assay

SMILES: CCCCCCS(=O)(=O)c1ncc(-n2ccnn2)cn1
- IC50 [1]: 1.7 µM
- Activity (Pseudomonas aeruginosa [2]): 60%

SMILES: O=C(CCCc1c[nH]c2ccccc12)N[C@H]1CCOC1=O
- IC50 [3]: 16.1 µM

SMILES: C[S+]([O-])CCCCN=C=S (configuration not stated)
- inhibition [4]: 42.1%

SMILES: Nc1nc2nn[nH]c2c(=O)[nH]1 [8-AZAGUANINE]
- IC50 [5]: 0.64 µM

SMILES: O=C(CCCCOc1cccc(Br)c1)NC1CCSC1=O (configuration not stated)
- IC50 [6]: 8 µM

SMILES: O=C(Cc1ccc(Br)cc1)N[C@H]1CCOC1=O
- IC50 [3]: 14.8 µM

SMILES: NC(=O)c1cc2cc(Cl)ccc2cc1OCC(=O)c1c[nH]c2cc(C3CC3)ccc12
- inhibition in vivo at 200 mg/kg (Pseudomonas aeruginosa [7]): 50%

SMILES: O=C(CCc1ccc(Br)cc1)N[C@H]1CCOC1=O
- IC50 [8]: 0.25 µM

SMILES: O=C(Cc1cccc(I)c1)N[C@H]1CCOC1=O
- IC50 [8]: 1.72 µM

SMILES: O=C(CCCCCCCCCN=C=S)CC(=O)N[C@H]1CCOC1=O
- IC50 [9]: 134 µM

SMILES: CCCCc1cn(CC(=O)N[C@H]2CCOC2=O)nn1
- IC50 [10]: 3.27 µM

SMILES: CCCCCC(=O)Nc1c(-c2ccccc2)[nH]c2ccccc12
- inhibition [11]: 65%

SMILES: O=c1cc(-c2ccccc2)oc2c(O)c(O)ccc12
- inhibition [12]: > 70%
- inhibition [13]: > 70%

SMILES: CCOC(=O)CNC(=O)C(=O)c1ccccc1Nc1ccc([N+](=O)[O-])cc1[N+](=O)[O-]
- inhibition [11]: 48%

SMILES: O=C(NCCc1ccc(Br)cc1)c1ccccc1[N+](=O)[O-]
- IC50 [14]: 4.8 µM

SMILES: O=C(CCCC1CCCCC1)N[C@H]1CCOC1=O
- IC50 [8]: 10 µM

SMILES: CCCCCCC/C=C1\SC(=O)NC1=O
- inhibition [15]: 40%

SMILES: NC(=O)SCNc1cccc(Cl)c1
- inhibition [16]: 50 to 60%

SMILES: NC(=O)SCNc1ccccc1O
- inhibition [16]: 50 to 60%

SMILES: Nc1ccc(S(=O)(=O)Nc2nccs2)cc1 [SULFATHIAZOLE]
- IC50 [17]: 9 µM

SMILES: CN(C)CCc1ccc(O)cc1
- inhibition (Pseudomonas aeruginosa [18]): 70%
- inhibition (Pseudomonas aeruginosa [19]): 30%

SMILES: Cc1ccc2nc(SCC(=O)Nc3ccc(Br)cc3)[nH]c2c1
- IC50 [20]: 12.5 µM

SMILES: CCCCCCCCNC(=O)CC(=O)c1ccccc1
- IC50 [21]: 10 µM

SMILES: C=CCSS/C=C/C[S+]([O-])CC=C (configuration not stated) [AJOENE]
- IC50 [22]: 15 µM

SMILES: CCN(CC)S(=O)(=O)c1cc(C(=O)Nc2ccccc2C(=O)O)ccc1Br
- IC50 [23]: 65 µM

SMILES: CCCCCCCC(=O)N[C@H]1CCOC1=O
- IC50 [8]: 0.34 µM

SMILES: O=C(Nc1ccccc1C(=O)O)c1ccc(-c2ccccc2)c(Oc2ccccc2)c1
- IC50 [23]: 35 µM

SMILES: CS(=O)(=O)c1ncc(-n2cnnn2)cn1
- IC50 [1]: 21 µM
- IC50 [24]: 15 µM

SMILES: O=C(CCSc1ccc(Cl)cc1)N[C@H]1CCOC1=O
- IC50 [10]: 5.2 µM

SMILES: CCCCCCCOc1ccc(C(=O)N[C@H]2CCOC2=O)cc1
- IC50 [8]: 1 µM

SMILES: CCCCCCCSCC(=O)N[C@H]1CCOC1=O
- inhibition (Escherichia coli): 50%

SMILES: O=[N+]([O-])c1ccccc1C(O)c1ccccc1 (configuration not stated)
- IC50 [25]: 3.2 µM
- Kd [26]: 13 µM

SMILES: CC(C)(C)c1ccc(C(=O)NO)cc1
- IC50 [27]: 12.5 µM
- IC50 [28]: 23.6 µM

SMILES: O=C(N[C@H]1CCOC1=O)c1ccc(-n2cc(CSc3ccccc3)nn2)cc1
- IC50 [10]: 2.64 µM

SMILES: NCCCCCCCCCCCCNc1ccnc2cc(Cl)ccc12
- inhibition (Pseudomonas aeruginosa [29]): 81%

SMILES: Nc1cccc(-n2cc(CCC(=O)N[C@H]3CCOC3=O)nn2)c1
- IC50 [10]: 4.03 µM

SMILES: CC(=O)c1ccccc1N [2-AMINOACETOPHENONE]
- EC50 [30]: 46 µM

SMILES: CS(=O)(=O)c1ncc(-n2cc(C(O)C3CCCC3)nn2)cn1 (configuration not stated)
- IC50 [31]: 26 µM

SMILES: O=C(CSc1nc2ccc([N+](=O)[O-])cc2[nH]1)Nc1ccc(I)cc1
- IC50 [20]: 13.4 µM

SMILES: CCCCCCCc1cc(=O)c2cc(C(F)(F)F)ccc2[nH]1
- IC50 [32]: 0.054 µM

SMILES: CCCCCCCc1cc(=O)c2cc([N+](=O)[O-])ccc2[nH]1
- IC50 [32]: 0.051 µM
